# Test results taken from ChEMBL document CHEMBL1133777, “De novo design of a novel oxazolidinone analogue as a potent and selective alpha1A adrenergic receptor antagonist with high oral bioavailability” (J Med Chem, 2000).
# What was measured:
# [1] = target: T1, 5-hydroxytryptamine receptor 1A (Mus musculus, UniProt Q64264); assay: Binding affinity towards 5-hydroxytryptamine 1A receptor receptor, using [3H]5-HT as radioligand.
# T1 sequence (Q64264 whole entry): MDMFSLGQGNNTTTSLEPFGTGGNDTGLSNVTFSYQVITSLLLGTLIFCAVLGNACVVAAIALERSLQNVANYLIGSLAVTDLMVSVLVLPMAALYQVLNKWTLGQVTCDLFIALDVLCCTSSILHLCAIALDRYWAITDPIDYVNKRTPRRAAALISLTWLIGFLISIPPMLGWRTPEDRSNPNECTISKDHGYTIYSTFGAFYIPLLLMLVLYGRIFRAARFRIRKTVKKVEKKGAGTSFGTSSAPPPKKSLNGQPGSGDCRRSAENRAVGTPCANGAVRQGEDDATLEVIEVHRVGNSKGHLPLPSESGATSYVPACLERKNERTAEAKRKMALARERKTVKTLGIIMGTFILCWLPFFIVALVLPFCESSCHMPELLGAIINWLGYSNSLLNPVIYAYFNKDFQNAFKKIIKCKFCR
# [2] = target: 5-hydroxytryptamine receptor 1B (Homo sapiens, UniProt P28222); assay: Binding affinity towards 5-hydroxytryptamine 1B receptor using [3H]5-HT as radioligand.
# [3] = target: 5-hydroxytryptamine receptor 1D (Homo sapiens, UniProt P28221); assay: Binding affinity towards 5-HT1D receptor, using [3H]5-HT as radioligand.
# [4] = target: 5-hydroxytryptamine receptor 2A (Homo sapiens, UniProt P28223); assay: Binding affinity towards 5-hydroxytryptamine 2A receptor using [3H]5-HT as radioligand.
# [5] = Oral bioavailability in rat; type: ADME, organism-based; conditions: in vivo
# [6] = Oral bioavailability in dog; type: ADME, organism-based, Canis lupus familiaris; conditions: in vivo
# [7] = Half-life in dog; type: ADME, organism-based, Canis lupus familiaris; conditions: in vivo
# [8] = Half-life in rat; type: ADME, organism-based; conditions: in vivo
# [9] = target: T2, Alpha-1D adrenergic receptor (Homo sapiens, UniProt P25100); assay: Binding affinity towards Alpha1D human adrenergic receptors, using [125I]HEAT as radioligand.
# T2 sequence (P25100 whole entry): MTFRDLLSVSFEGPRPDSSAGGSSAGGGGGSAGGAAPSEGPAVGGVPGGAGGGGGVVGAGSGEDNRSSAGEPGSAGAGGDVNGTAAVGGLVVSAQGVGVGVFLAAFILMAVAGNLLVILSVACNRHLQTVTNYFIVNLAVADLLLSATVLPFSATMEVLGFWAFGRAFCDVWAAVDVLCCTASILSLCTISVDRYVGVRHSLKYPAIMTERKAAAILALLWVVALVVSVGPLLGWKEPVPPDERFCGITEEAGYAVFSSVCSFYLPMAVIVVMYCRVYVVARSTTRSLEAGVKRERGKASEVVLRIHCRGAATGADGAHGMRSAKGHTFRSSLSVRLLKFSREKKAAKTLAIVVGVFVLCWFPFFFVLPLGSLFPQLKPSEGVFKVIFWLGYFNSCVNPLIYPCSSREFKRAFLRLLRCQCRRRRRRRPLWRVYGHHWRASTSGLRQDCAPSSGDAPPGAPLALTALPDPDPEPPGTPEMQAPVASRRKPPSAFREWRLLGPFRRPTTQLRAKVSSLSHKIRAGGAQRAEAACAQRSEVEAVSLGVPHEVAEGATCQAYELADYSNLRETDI
# [10] = target: T3, Alpha-1D adrenergic receptor (Rattus norvegicus, UniProt P23944); assay: Binding affinity towards Alpha1D rat adrenergic receptors, using [125I]HEAT as radioligand.
# T3 sequence (P23944 whole entry): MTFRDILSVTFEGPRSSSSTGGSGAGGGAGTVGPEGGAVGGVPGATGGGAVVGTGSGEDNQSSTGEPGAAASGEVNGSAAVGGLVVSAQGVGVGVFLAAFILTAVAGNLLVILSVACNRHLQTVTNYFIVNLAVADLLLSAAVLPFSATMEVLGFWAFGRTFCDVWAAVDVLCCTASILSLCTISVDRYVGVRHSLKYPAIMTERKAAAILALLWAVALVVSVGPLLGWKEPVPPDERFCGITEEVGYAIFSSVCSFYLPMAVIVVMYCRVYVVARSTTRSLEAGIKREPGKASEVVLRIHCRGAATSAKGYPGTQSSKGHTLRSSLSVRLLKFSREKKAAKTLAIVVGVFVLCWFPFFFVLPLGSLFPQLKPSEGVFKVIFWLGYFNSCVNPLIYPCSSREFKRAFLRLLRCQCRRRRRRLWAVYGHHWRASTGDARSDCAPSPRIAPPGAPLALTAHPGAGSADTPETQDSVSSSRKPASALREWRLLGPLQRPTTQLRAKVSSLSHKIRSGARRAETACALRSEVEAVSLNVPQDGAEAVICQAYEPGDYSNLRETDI
# [11] = target: T4, Alpha-2A adrenergic receptor (Homo sapiens, UniProt P08913); assay: Binding affinity towards human alpha-2A-adrenergic receptor, using [3H]rauwolscine as radioligand.
# T4 sequence (P08913 whole entry): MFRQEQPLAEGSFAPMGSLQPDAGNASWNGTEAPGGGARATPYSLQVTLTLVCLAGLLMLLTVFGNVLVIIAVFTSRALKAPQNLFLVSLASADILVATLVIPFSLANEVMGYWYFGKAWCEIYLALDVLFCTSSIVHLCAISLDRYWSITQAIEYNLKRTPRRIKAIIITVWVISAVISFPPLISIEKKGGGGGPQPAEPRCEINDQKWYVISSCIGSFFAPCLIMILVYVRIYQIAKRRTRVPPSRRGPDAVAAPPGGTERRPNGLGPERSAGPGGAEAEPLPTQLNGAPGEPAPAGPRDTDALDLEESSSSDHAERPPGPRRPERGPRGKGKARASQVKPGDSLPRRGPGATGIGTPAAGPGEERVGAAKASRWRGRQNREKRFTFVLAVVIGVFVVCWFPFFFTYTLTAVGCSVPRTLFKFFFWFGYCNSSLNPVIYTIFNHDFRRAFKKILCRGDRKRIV
# [12] = target: T5, Alpha-2B adrenergic receptor (Homo sapiens, UniProt P18089); assay: Binding affinity towards human alpha-2B-adrenergic receptor, using [3H]rauwolscine as radioligand.
# T5 sequence (P18089 whole entry): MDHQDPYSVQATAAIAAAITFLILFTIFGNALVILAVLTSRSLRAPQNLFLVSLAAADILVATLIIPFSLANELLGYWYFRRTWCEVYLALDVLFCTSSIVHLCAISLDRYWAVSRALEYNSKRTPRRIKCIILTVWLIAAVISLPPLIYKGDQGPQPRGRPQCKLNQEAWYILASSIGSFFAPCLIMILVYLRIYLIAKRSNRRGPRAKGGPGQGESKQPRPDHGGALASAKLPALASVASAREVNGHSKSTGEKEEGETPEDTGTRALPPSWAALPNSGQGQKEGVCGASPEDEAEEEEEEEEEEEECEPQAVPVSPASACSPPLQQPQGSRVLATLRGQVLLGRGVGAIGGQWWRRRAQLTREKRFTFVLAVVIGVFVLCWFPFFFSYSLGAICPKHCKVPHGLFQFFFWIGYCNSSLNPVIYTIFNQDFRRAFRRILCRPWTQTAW
# [13] = target: T6, Alpha-2C adrenergic receptor (Homo sapiens, UniProt P18825); assay: Binding affinity towards human alpha-2C-adrenergic receptor, using [3H]rauwolscine as radioligand.
# T6 sequence (P18825 whole entry): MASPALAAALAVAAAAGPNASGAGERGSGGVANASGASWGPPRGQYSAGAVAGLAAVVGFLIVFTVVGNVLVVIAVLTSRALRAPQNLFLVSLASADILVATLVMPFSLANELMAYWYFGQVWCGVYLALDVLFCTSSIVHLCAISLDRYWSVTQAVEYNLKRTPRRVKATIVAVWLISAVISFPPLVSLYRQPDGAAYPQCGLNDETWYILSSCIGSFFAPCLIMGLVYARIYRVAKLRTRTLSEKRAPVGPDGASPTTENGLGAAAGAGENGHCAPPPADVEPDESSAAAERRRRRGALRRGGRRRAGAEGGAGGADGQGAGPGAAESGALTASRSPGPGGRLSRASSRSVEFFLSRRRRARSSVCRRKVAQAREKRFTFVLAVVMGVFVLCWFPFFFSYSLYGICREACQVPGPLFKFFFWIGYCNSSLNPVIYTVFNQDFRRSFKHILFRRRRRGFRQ
# [14] = target: T7, Alpha-1B adrenergic receptor (Rattus norvegicus, UniProt P15823); assay: Binding affinity towards Alpha1B rat adrenergic receptors, using [125I]HEAT as radioligand.
# T7 sequence (P15823 whole entry): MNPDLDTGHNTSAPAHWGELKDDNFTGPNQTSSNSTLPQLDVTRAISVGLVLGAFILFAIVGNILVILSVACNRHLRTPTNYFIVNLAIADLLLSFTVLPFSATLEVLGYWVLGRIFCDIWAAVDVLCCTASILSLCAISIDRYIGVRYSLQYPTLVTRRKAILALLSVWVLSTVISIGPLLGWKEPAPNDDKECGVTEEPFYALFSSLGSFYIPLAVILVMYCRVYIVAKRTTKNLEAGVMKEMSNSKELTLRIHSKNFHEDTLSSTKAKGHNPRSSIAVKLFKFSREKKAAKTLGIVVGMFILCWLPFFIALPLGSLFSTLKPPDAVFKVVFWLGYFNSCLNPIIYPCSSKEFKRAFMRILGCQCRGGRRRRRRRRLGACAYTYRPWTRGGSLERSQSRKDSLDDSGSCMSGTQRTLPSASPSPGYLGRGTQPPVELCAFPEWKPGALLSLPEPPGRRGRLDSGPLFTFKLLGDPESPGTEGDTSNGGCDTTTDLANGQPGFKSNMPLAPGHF
# [15] = target: T8, Alpha-1B adrenergic receptor (Homo sapiens, UniProt P35368); assay: Binding affinity towards Alpha1B human adrenergic receptors, using [125I]HEAT as radioligand.
# T8 sequence (P35368 whole entry): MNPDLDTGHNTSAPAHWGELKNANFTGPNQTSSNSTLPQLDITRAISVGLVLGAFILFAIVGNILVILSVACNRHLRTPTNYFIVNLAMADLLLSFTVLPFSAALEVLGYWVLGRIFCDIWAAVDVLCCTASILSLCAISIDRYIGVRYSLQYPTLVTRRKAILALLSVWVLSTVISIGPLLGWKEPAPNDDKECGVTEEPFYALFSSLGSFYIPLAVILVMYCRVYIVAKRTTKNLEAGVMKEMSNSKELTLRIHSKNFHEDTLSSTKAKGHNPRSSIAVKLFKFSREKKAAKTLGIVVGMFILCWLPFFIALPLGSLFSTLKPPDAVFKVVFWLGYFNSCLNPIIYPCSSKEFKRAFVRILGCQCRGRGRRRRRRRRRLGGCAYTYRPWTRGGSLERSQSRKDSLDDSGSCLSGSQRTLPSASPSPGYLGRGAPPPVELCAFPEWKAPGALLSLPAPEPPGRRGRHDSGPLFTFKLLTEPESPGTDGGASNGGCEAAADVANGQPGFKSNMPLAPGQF
# Canis familiaris [16] = assay: In vivo for selective antagonistic activity against intra-urethral pressure in dog, using phenylephrine as agonist; type: functional, Canis lupus familiaris, Urethra
# Canis familiaris [17] = assay: In vivo for selective antagonistic activity against diastolic blood pressure in dog, using phenylephrine as agonist; type: functional, Canis lupus familiaris, Artery
# Canis familiaris [18] = organism: Canis familiaris; assay: In vitro inhibition of phenylephrine induced contractions in dog prostate tissue; type: functional; conditions: Canis lupus familiaris, Prostate gland
# Histamine H2 receptor = Histamine H2 receptor (Homo sapiens, UniProt P25021); assay: Binding affinity towards human Histamine H2 receptor, using [3H]tiotidine as radioligand.
# [19] = target: Voltage-gated L-type calcium channel (Rattus norvegicus, UniProt P22002+Q02485+P27732); assay: Inhibition of [3H]nitrendipine binding to rat L-type Ca-channel receptor; type: protein assay
# Homo sapiens = organism: Homo sapiens; assay: In vitro inhibition of A-61603 induced contractions in human prostate tissue; type: functional; conditions: Prostate gland
# Rattus norvegicus [20] = assay: Compound was tested in situ for the inhibition of phenylephrine-induced contractions in anesthetized rat; type: functional
# Rattus norvegicus [21] = organism: Rattus norvegicus; assay: In vitro inhibition of A-61603 induced contractions in rat prostate tissue; type: functional; conditions: Prostate gland
# Rattus norvegicus [22] = organism: Rattus norvegicus; assay: In vitro inhibition of norepinephrine induced contractions in isolated rat aorta; type: functional
# Histamine H1 receptor = Histamine H1 receptor (Homo sapiens, UniProt P35367); assay: Binding affinity towards Histamine H1 receptor in human brain tissue preparation, using [3H]pyrilamine as radioligand.
# Chain of Histamine H1 receptor (P35367 whole entry): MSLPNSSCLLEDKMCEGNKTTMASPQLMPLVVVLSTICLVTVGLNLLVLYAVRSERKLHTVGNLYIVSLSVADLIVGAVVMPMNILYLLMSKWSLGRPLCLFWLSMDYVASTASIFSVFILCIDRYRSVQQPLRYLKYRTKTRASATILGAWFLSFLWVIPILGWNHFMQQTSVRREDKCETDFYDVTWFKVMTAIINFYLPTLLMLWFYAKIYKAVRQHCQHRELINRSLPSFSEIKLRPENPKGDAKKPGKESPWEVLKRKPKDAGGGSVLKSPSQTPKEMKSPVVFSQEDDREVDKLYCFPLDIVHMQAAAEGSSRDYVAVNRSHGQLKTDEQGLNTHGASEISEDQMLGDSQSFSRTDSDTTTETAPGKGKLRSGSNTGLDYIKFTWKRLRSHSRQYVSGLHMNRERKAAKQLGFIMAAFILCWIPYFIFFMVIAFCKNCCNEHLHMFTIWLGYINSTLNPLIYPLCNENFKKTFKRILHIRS
# Chain of 5-hydroxytryptamine receptor 1B (P28222 whole entry): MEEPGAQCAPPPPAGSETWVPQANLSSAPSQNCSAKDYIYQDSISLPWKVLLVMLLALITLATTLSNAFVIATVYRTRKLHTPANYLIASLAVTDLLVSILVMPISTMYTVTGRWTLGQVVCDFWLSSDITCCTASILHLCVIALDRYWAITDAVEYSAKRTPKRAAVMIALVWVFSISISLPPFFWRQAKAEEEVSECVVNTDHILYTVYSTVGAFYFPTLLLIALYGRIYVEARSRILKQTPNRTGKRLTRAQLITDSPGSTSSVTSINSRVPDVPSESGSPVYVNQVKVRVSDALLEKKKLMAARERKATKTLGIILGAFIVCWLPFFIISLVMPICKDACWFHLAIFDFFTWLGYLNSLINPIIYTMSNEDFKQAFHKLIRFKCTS
# Chain of 5-hydroxytryptamine receptor 1D (P28221 whole entry): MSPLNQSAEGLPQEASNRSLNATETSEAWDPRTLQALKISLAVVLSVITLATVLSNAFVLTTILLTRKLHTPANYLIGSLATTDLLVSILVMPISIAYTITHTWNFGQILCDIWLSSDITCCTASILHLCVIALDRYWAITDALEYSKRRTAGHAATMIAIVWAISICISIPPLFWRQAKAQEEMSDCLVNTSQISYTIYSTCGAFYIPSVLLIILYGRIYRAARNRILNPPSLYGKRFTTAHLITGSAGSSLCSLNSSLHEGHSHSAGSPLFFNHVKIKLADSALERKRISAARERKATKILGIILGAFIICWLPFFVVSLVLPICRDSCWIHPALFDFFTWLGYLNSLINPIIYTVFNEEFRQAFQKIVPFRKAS
# Chain of Histamine H2 receptor (P25021 whole entry): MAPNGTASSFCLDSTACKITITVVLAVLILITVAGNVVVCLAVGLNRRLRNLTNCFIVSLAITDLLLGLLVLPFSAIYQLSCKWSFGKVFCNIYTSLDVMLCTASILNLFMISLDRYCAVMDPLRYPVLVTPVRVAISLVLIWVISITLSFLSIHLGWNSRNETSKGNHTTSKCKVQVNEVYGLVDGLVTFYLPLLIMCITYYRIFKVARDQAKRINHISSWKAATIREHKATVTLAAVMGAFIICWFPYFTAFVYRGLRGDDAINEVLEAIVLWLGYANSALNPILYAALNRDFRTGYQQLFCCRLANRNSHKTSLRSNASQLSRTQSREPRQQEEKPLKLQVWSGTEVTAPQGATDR
# Chain of 5-hydroxytryptamine receptor 2A (P28223 whole entry): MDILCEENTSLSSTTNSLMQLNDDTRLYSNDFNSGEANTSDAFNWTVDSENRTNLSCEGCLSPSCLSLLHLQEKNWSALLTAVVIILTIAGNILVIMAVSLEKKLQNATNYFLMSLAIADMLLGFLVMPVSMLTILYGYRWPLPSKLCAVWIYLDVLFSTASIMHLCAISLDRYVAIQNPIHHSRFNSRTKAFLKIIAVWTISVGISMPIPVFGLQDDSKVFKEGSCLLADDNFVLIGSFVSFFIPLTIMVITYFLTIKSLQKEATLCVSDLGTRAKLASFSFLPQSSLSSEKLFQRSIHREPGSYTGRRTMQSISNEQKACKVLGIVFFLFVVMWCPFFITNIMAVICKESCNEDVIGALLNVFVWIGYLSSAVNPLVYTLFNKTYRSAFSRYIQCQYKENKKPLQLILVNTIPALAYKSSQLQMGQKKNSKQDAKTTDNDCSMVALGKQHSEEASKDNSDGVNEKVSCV
smiles,measurement,setting,value
C[C@@H]1OC(=O)N(C(=O)NCCCN2CCC(c3ccc(F)cc3)CC2)[C@H]1c1ccc(F)c(F)c1,Ki,[1],> 500 nM
same,Ki,[2],> 500 nM
same,Ki,[3],> 500 nM
same,Ki,[4],> 500 nM
same,bioavailability,[5],25%
same,bioavailability,[6],74%
same,half-life,[7],> 12 h
same,half-life,[8],6 h
same,Ki,[9],122 nM
same,Ki,[10],62 nM
same,Ki,[11],> 45 nM
same,Ki,[12],> 45 nM
same,Ki,[13],> 45 nM
same,Ki,[14],79 nM
same,Ki,[15],119 nM
same,Kb,Canis familiaris [16],3 µg/kg
same,DBP15,Canis familiaris [17],>300 µg/kg
same,Kb,Canis familiaris [18],0.33 nM
same,Ki,Histamine H2 receptor,> 1000 nM
same,Ki,[19],> 1000 nM
same,Kb,Homo sapiens,0.1 nM
same,AD50,Rattus norvegicus [20],0.012 mg/kg
same,Kb,Rattus norvegicus [21],0.26 nM
same,Kb,Rattus norvegicus [22],> 1000 nM
same,Ki,Histamine H1 receptor,54 nM
COc1cc2nc(N3CCN(C(=O)C4CCCO4)CC3)nc(N)c2cc1OC (configuration not stated) [TERAZOSIN],Kb,Canis familiaris [16],16 µg/kg
same,DBP15,Canis familiaris [17],72 µg/kg
same,Kb,Canis familiaris [18],130 nM
same,Kb,Homo sapiens,25 nM
same,AD50,Rattus norvegicus [20],0.052 mg/kg
same,Kb,Rattus norvegicus [21],25 nM
same,Kb,Rattus norvegicus [22],19 nM
